ChEMBL document CHEMBL3301472, “MMV Malaria Box HIV and cytotoxicity screening”

Tests used:
Type in all cases: toxicity, cell-based
[1] = MMV: MTT Cytotoxicity Assay Day 7 pi of Assay #11 (NO washout), U87-CD4-CXCR4 cells, % cell death @ 5mM compound; conditions: human, u87-cd4-cxcr4, 5000 µM
[2] = MMV: MTT Cytotoxicity Assay Day 7 pi of Assay #6 (compound washed out Day 1 pi), U87-CD4-CCR5 cells, % cell death @ 5mM compound; conditions: human, u87-cd4-ccr5, 5000 µM
[3] = MMV: MTT Cytotoxicity Assay Day 7 pi of Assay #10 (NO washout), U87-CD4-CCR5 cells, % cell death @ 5mM compound; conditions: human, u87-cd4-ccr5, 5000 µM
[4] = MMV: MTT Cytotoxicity Assay Day 3 pi, U87-CD4-CCR5 cells, % cell death @ 5mM compound; conditions: human, u87-cd4-ccr5, 5000 µM
[5] = MMV: MTT Cytotoxicity Assay Day 3 pi, U87-CD4-CXCR4 cells, % cell death @ 5mM compound; conditions: human, u87-cd4-cxcr4, 5000 µM
[6] = MMV: MTT Cytotoxicity Assay Day 7 pi of Assay #7 (compound washed out Day 1 pi), U87-CD4-CXCR4 cells, % cell death @ 5mM compound; conditions: human, u87-cd4-cxcr4, 5000 µM

COc1ccc(-c2c(C)nn3c(N)c(C#N)cnc23)cc1OC
% Cell Death [1]: 93 | % Cell Death [2]: 93 | % Cell Death [3]: 124 | % Cell Death [4]: 83 | % Cell Death [5]: 98 | % Cell Death [6]: 89

CCOC(=O)c1cnc2ccc(CC)cc2c1O
% Cell Death [1]: 42 | % Cell Death [2]: 13 | % Cell Death [3]: 21 | % Cell Death [4]: 1 | % Cell Death [5]: 22 | % Cell Death [6]: -25

Cc1ccc(-c2cc3c(nn2)-c2ccccc2C3=O)cc1
% Cell Death [1]: 96 | % Cell Death [2]: 48 | % Cell Death [3]: 106 | % Cell Death [4]: 46 | % Cell Death [5]: 57 | % Cell Death [6]: 58

Cc1ccc(Nc2nc(-c3ccccn3)cs2)cc1
% Cell Death [1]: 12 | % Cell Death [2]: 20 | % Cell Death [3]: 21 | % Cell Death [4]: 24 | % Cell Death [5]: 29 | % Cell Death [6]: -17

Cc1cc(Nc2ccc3ccccc3c2)n2ncnc2n1
% Cell Death [1]: -43 | % Cell Death [2]: 12 | % Cell Death [3]: -3 | % Cell Death [4]: 39 | % Cell Death [5]: 38 | % Cell Death [6]: -16

COc1ccc(-n2ccnc2SCC(=O)Nc2cc(C)ccc2C)c(OC)c1
% Cell Death [1]: 78 | % Cell Death [2]: 32 | % Cell Death [3]: 71 | % Cell Death [4]: 18 | % Cell Death [5]: 54 | % Cell Death [6]: -16

Cc1ccc(N2C(=O)C3C(C2=O)C2(c4ccccc4)C(=O)C3(c3ccccc3)C(c3ccccc3)=C2c2ccccc2)cc1 (centres undefined)
% Cell Death [1]: -35 | % Cell Death [2]: 0 | % Cell Death [3]: 33 | % Cell Death [4]: -31 | % Cell Death [5]: 36 | % Cell Death [6]: 5

CCOC(=O)c1cn(CC)c2cc(N(C)CCc3ccc(OC)c(OC)c3)c(F)cc2c1=O
% Cell Death [1]: -17 | % Cell Death [2]: -4 | % Cell Death [3]: 27 | % Cell Death [4]: 22 | % Cell Death [5]: -10 | % Cell Death [6]: -40

CC(C)(C)c1ccc(O)c(CNC2CCCCC2)c1
% Cell Death [1]: 101 | % Cell Death [2]: 69 | % Cell Death [3]: 132 | % Cell Death [4]: 108 | % Cell Death [5]: 66 | % Cell Death [6]: 96

CC1CN(C(=O)c2sc3ccccc3c2Cl)CC(C)O1 (centres undefined)
% Cell Death [1]: 105 | % Cell Death [2]: 7 | % Cell Death [3]: 124 | % Cell Death [4]: 107 | % Cell Death [5]: 47 | % Cell Death [6]: 45

CN(C)c1ccc(C=Cc2nc(=O)c3ccccc3o2)cc1
% Cell Death [1]: 20 | % Cell Death [2]: -14 | % Cell Death [3]: 46 | % Cell Death [4]: 39 | % Cell Death [5]: 38 | % Cell Death [6]: 0

COc1ccc(C2=C(c3ccc(OC)cc3)C3(c4ccccc4)C(=O)C2(c2ccccc2)C2C(=O)N(c4ccc(C)cc4)C(=O)C23)cc1 (centres undefined)
% Cell Death [1]: -6 | % Cell Death [2]: -10 | % Cell Death [3]: 41 | % Cell Death [4]: -42 | % Cell Death [5]: 28 | % Cell Death [6]: 13

CCOC(=O)c1c(NC(=O)c2ccccc2)sc2c(O)c(CN(CC)CC)ccc12
% Cell Death [1]: 25 | % Cell Death [2]: -2 | % Cell Death [3]: 25 | % Cell Death [4]: -7 | % Cell Death [5]: -8 | % Cell Death [6]: 40

CCOC(=O)C1=C(c2ccccc2)N=c2sc(=Cc3cc(C)n(-c4ccc(F)cc4)c3C)c(=O)n2C1c1cccc(OC)c1OC (centres undefined)
% Cell Death [1]: 20 | % Cell Death [2]: 5 | % Cell Death [3]: -17 | % Cell Death [4]: 18 | % Cell Death [5]: 45 | % Cell Death [6]: -3

OC(CNC1CCCCC1)Cn1c2ccccc2c2ccccc21 (centres undefined)
% Cell Death [1]: -3 | % Cell Death [2]: 13 | % Cell Death [3]: 35 | % Cell Death [4]: -3 | % Cell Death [5]: 14 | % Cell Death [6]: -20

Cc1cc(Nc2ccc(C)c(Cl)c2)n2nc(C(F)(F)F)nc2n1
% Cell Death [1]: 10 | % Cell Death [2]: -35 | % Cell Death [3]: 42 | % Cell Death [4]: 11 | % Cell Death [5]: 28 | % Cell Death [6]: -28

COc1cccc(C=Cc2nc(=O)c3ccccc3o2)c1OC
% Cell Death [1]: 31 | % Cell Death [2]: 17 | % Cell Death [3]: 51 | % Cell Death [4]: 70 | % Cell Death [5]: 54 | % Cell Death [6]: -19

CCCN(CCC)CC(O)COc1ccccc1C(=O)Nc1ccccc1 (centres undefined)
% Cell Death [1]: -27 | % Cell Death [2]: -14 | % Cell Death [3]: 34 | % Cell Death [4]: 33 | % Cell Death [5]: 22 | % Cell Death [6]: 14

Fc1ccc2[nH]c3c(NCCCN4CCOCC4)ncnc3c2c1
% Cell Death [1]: 49 | % Cell Death [2]: 34 | % Cell Death [3]: 38 | % Cell Death [4]: -1 | % Cell Death [5]: 36 | % Cell Death [6]: 7

COc1ccc(C=C2SC(=N)N(c3ccccc3OC)C2=O)cc1
% Cell Death [1]: 93 | % Cell Death [2]: 100 | % Cell Death [3]: 143 | % Cell Death [4]: 100 | % Cell Death [5]: 101 | % Cell Death [6]: 95

COc1ccc(NC(=O)C2c3ccccc3C(=O)N(CC(C)C)C2c2cccs2)cc1Cl (centres undefined)
% Cell Death [1]: -10 | % Cell Death [2]: 5 | % Cell Death [3]: -2 | % Cell Death [4]: 13 | % Cell Death [5]: 22 | % Cell Death [6]: -21

CCOC(=O)c1c(C)n(-c2ccc(Cl)cc2)c2ccc(OC(=O)C=Cc3ccccc3)cc12
% Cell Death [1]: 51 | % Cell Death [2]: 4 | % Cell Death [3]: 2 | % Cell Death [4]: 18 | % Cell Death [5]: 26 | % Cell Death [6]: -5

COc1ccc2c(c1)OC(O)(C(F)(F)C(F)(F)F)CC2=O (centres undefined)
% Cell Death [1]: 88 | % Cell Death [2]: 37 | % Cell Death [3]: 62 | % Cell Death [4]: 42 | % Cell Death [5]: 47 | % Cell Death [6]: 4

Cc1ccc(-c2cc3nc4c(c(O)n3n2)CCCC4)cc1
% Cell Death [1]: 97 | % Cell Death [2]: 24 | % Cell Death [3]: 113 | % Cell Death [4]: 70 | % Cell Death [5]: 56 | % Cell Death [6]: 52

COc1ccccc1CNC(=O)CCn1c(=O)[nH]c2ccccc2c1=O
% Cell Death [1]: -16 | % Cell Death [2]: 7 | % Cell Death [3]: 16 | % Cell Death [4]: -7 | % Cell Death [5]: 12 | % Cell Death [6]: -15

c1ccc2cc3c(Nc4ccc(N5CCOCC5)cc4)ccnc3cc2c1
% Cell Death [1]: 108 | % Cell Death [2]: 99 | % Cell Death [3]: 106 | % Cell Death [4]: 91 | % Cell Death [5]: 97 | % Cell Death [6]: 98

CCOC(=O)c1cn(CC)c2cc(N3CCCCC3)c(F)cc2c1=O
% Cell Death [1]: 103 | % Cell Death [2]: 99 | % Cell Death [3]: 115 | % Cell Death [4]: 106 | % Cell Death [5]: 101 | % Cell Death [6]: 97

CNCCCNc1ccnc2cc(Cl)ccc12
% Cell Death [1]: 100 | % Cell Death [2]: 97 | % Cell Death [3]: 124 | % Cell Death [4]: 108 | % Cell Death [5]: 100 | % Cell Death [6]: 98

COc1ccccc1CNC(=O)CCn1c(=O)[nH]c2ccsc2c1=O
% Cell Death [1]: -15 | % Cell Death [2]: -12 | % Cell Death [3]: -16 | % Cell Death [4]: 34 | % Cell Death [5]: 10 | % Cell Death [6]: -19

COc1ccc(Br)cc1C1Nc2ccc3ccccc3c2C2=C1C(=O)CC(c1ccccc1)C2 (centres undefined)
% Cell Death [1]: -37 | % Cell Death [2]: 30 | % Cell Death [3]: 16 | % Cell Death [4]: 17 | % Cell Death [5]: 28 | % Cell Death [6]: -14

Cc1cc(C=C2SC(=Nc3ccccc3)N(C3CCCC3)C2=O)c(C)n1-c1ccc(Cl)cc1
% Cell Death [1]: 90 | % Cell Death [2]: 8 | % Cell Death [3]: 140 | % Cell Death [4]: 96 | % Cell Death [5]: 65 | % Cell Death [6]: 36

CCOc1ccc(-c2nonc2NC(=O)c2cccc(C)c2)cc1OCC
% Cell Death [1]: -48 | % Cell Death [2]: -8 | % Cell Death [3]: 19 | % Cell Death [4]: -8 | % Cell Death [5]: 13 | % Cell Death [6]: -14

CCc1ccc(Nc2cc(C)c3ccc(O)cc3n2)cc1.Cl
% Cell Death [1]: 102 | % Cell Death [2]: 101 | % Cell Death [3]: 130 | % Cell Death [4]: 105 | % Cell Death [5]: 101 | % Cell Death [6]: 95

CCOC(=O)c1ccc2[nH]c(-c3ccccc3)cc(=O)c2c1
% Cell Death [1]: 99 | % Cell Death [2]: 98 | % Cell Death [3]: 129 | % Cell Death [4]: 104 | % Cell Death [5]: 99 | % Cell Death [6]: 96

Cc1ccc(N2C3c4ccccc4N(S(=O)(=O)c4ccc(C)cc4)C2c2ccccc2N3S(=O)(=O)c2ccc(C)cc2)cc1
% Cell Death [1]: -39 | % Cell Death [2]: 0 | % Cell Death [3]: 8 | % Cell Death [4]: 26 | % Cell Death [5]: 37 | % Cell Death [6]: -17

CCCc1c(CC)c(=N)c2ccccc2n1C
% Cell Death [1]: -23 | % Cell Death [2]: -10 | % Cell Death [3]: -7 | % Cell Death [4]: 33 | % Cell Death [5]: 21 | % Cell Death [6]: -9

Cc1ccc(Nc2nc(NCCO)c3ccccc3n2)cc1C
% Cell Death [1]: 12 | % Cell Death [2]: 3 | % Cell Death [3]: 36 | % Cell Death [4]: -23 | % Cell Death [5]: 28 | % Cell Death [6]: -22

CCOC(=O)c1cnc2c(C)cc(C)cc2c1Nc1ccc(OC)c(OC)c1
% Cell Death [1]: -7 | % Cell Death [2]: 19 | % Cell Death [3]: 8 | % Cell Death [4]: 11 | % Cell Death [5]: 22 | % Cell Death [6]: 7

c1ccc(Cn2c(N=Nc3c(Nc4ccccc4)ccc4ccccc34)nc3ccccc32)cc1
% Cell Death [1]: 101 | % Cell Death [2]: 95 | % Cell Death [3]: 83 | % Cell Death [4]: 92 | % Cell Death [5]: 97 | % Cell Death [6]: 99
